Measurements from patent US6482921B1, “Uridyl peptide antibiotic (UPA) derivatives, their synthesis and use” (Essential Therapeutics, Inc., priority 1999, dated 2002).
Converted amounts (≈) assume the structure as drawn.

Assays:
Type in all cases: cell-based
[1] = tested on: Staphylococcus aureus 8325-4; test: MIC broth microdilution, S. aureus 8325-4 (wild type); conditions: S. aureus 8325-4
[2] = tested on: Pseudomonas aeruginosa PAM 1020; test: MIC broth microdilution, P. aeruginosa PAM 1020 (wild type); conditions: P. aeruginosa PAM 1020
[3] = tested on: Pseudomonas aeruginosa PAM 1135; test: MIC broth microdilution, P. aeruginosa PAM 1135 (high level UPA resistance); conditions: P. aeruginosa PAM 1135 UPA1^r
Escherichia Coli MC 4100 = test: MIC broth microdilution, E. coli MC 4100 (wild type); conditions: E. coli MC 4100
[4] = tested on: Pseudomonas aeruginosa PAM 1323; test: MIC broth microdilution, P. aeruginosa PAM 1323 (medium level UPA resistance)
[5] = tested on: Escherichia Coli MC 4100 AcrAB; test: MIC broth microdilution, E. coli MC 4100 AcrAB (ΔAcrAB); conditions: E. coli AcrAB
[6] = tested on: Pasteurella multocida pm002; test: MIC broth microdilution, P. multocida pm002 (wild type)
[7] = tested on: Escherichia Coli MC 4100 AcrAB UPA3r; test: MIC broth microdilution, E. coli MC 4100 AcrAB UPA3r (ΔAcrAB, UPA resistant); conditions: E. coli AcrAB UPA3^r
[8] = tested on: Pseudomonas aeruginosa PAM 1154; test: MIC broth microdilution, P. aeruginosa PAM 1154 (OprM::Hg); conditions: P. aeruginosa PAM 1154 OprM::Hg
[9] = tested on: Staphylococcus aureus ATCC 29213; test: MIC broth microdilution, S. aureus ATCC 29213 (wild type); conditions: S. aureus ATCC 29213

Row | Compound | MIC (μg/ml) Broth microdilution [1] [µg/mL] | MIC (μg/ml) Broth microdilution [2] [µg/mL] | MIC (μg/ml) Broth microdilution [3] [µg/mL] | MIC (μg/ml) Broth microdilution (Escherichia Coli MC 4100) [µg/mL] | MIC (μg/ml) Broth microdilution [4] [µg/mL] | MIC (μg/ml) Broth microdilution [5] [µg/mL] | MIC (μg/ml) Broth microdilution [6] [µg/mL] | MIC (μg/ml) Broth microdilution [7] [µg/mL] | MIC (μg/ml) Broth microdilution [8] [µg/mL] | MIC (μg/ml) Broth microdilution [9] [µg/mL]
1 | CC(N)C(=O)N(C)C(C)C(NC(=O)C(Cc1ccccc1)NC(=O)NC(Cc1cccs1)C(=O)O)C(=O)NCC1CC(O)C(n2ccc(=O)[nH]c2=O)O1 [Compound 125, 1-[5′-[(2S,3S)-N^3-L-Alanyl-N^2-[N-[[(1S)-1-carboxy-2-(2-thienyl)ethyl]carbamoyl]-L-phenylalanyl]-N^3-methyl-2,3-diaminobutyramidol-3′,5′-dideoxy-α-L-arabinofuranosyl]uracil] | >512 | 64 (≈ 84.6 µM) | >512 | >512 | >512 | 8 (≈ 10.6 µM) | >512 | 64 (≈ 84.6 µM) | 8 (≈ 10.6 µM) | >512
2 | 1-[5′-[(2S,3S)-N^2-[N-[[(1S)-1-Carboxy-2-indol-3-ylethyl]carbamoyl]-L-alanyl]-N^3-L-3-hydroxyphenylalanyl-N^3-methyl-2,3-diaminobutyramidol-3′,5′-dideoxy-α-L-arabinofuranosyl]uracil [Compound 103] | 256 | 16 | >512 | 512 | 512 | 2 | 256 | 32 | 8 | 512
3 | CC(C)CC(NC(=O)NC(Cc1ccc(O)cc1)C(=O)O)C(=O)NC(C(=O)NCC1CC(O)C(n2ccc(=O)[nH]c2=O)O1)C(C)N(C)C(=O)C(C)N [Compound 161, 1-[5′-[(2S,3S)-N^3-L-Alanyl-N^2-[N-[[(1S)-1-carboxy-4-hydroxyphenethyl)carbamoyl]-L-leucyl]-N^3-methyl-2,3-diaminobutyramido]-3′,5′-dideoxy-α-L-arabinofuranosyl]uracil] | >512 | 16 (≈ 21.8 µM) | >512 | >512 | 256 (≈ 349 µM) | 32 (≈ 43.7 µM) | 512 (≈ 699 µM) | 256 (≈ 349 µM) | 8 (≈ 10.9 µM) | >512
4 | CC(C)[C@H](NC(=O)N[C@@H](Cc1c[nH]c2ccccc12)C(=O)O)C(=O)N[C@H](C(=O)NC[C@H]1C[C@@H](O)[C@H](n2ccc(=O)[nH]c2=O)O1)[C@H](C)N(C)C(=O)[C@H](C)N [Compound 169, 1-[5′-[(2S,3S)-N^3-L-Alanyl-N^2-[N-[[(1S)-1-carboxy-2-indol-3-ylethyl]carbamoyl]-L-valinyl]-N^3-methyl-2,3-diaminobutyramido]-3′,5′-dideoxy-α-L-arabinofuranosyl]uracil] | >512 | 128 (≈ 173 µM) | >512 | 256 (≈ 345 µM) | 64 (≈ 86.3 µM) | 2 (≈ 2.7 µM) | 128 (≈ 173 µM) | 32 (≈ 43.1 µM) | 128 (≈ 173 µM) | >512
5 | CSCCC(NC(=O)NC(Cc1c[nH]c2ccccc12)C(=O)O)C(=O)NC(C(=O)NCC1CC(O)C(n2ccc(=O)[nH]c2=O)O1)C(C)N(C)C(=O)C(C)N [Compound 167, 1-[5′-[(2S,3S)-N^3-L-Alanyl-N^2-[N-[[(1S)-1-carboxy-2-indol-3-ylethyl]carbamoyl]-L-methionyl]-N^3-methyl-2,3-diaminobutyramido]-3′,5′-dideoxy-α-L-arabinofuranosyl]uracil] | >512 | 512 (≈ 662 µM) | >512 | 512 (≈ 662 µM) | 512 (≈ 662 µM) | 4 (≈ 5.17 µM) | 128 (≈ 165 µM) | 128 (≈ 165 µM) | 256 (≈ 331 µM) | >512
6 | CC(C(NC(=O)C(Cc1ccccc1)NC(=O)NC(Cc1c[nH]c2ccccc12)C(=O)O)C(=O)NCC1CC(O)C(n2ccc(=O)[nH]c2=O)O1)N(C)C(=O)C(N)Cc1ccc(O)cc1 [Compound 163, 1-[5′-[(2S,3S)-N^2-[N-[[(1S)-1-Carboxy-2-indol-3-ylethyl]carbamoyl]-L-phenylalanyl]-N^3-L-tyrosyl-N^3-methyl-2,3-diaminobutyramido]-3′,5′-dideoxy-α-L-arabinofuranosyl]uracil] | >512 | 16 (≈ 18.1 µM) | 256 (≈ 290 µM) | 512 (≈ 581 µM) | 256 (≈ 290 µM) | 4 (≈ 4.54 µM) | 256 (≈ 290 µM) | 512 (≈ 581 µM) | 16 (≈ 18.1 µM) | >512
7 | CC(C(NC(=O)C(Cc1ccccc1)NC(=O)NC(Cc1c[nH]c2ccccc12)C(=O)O)C(=O)NCC1CC(O)C(n2ccc(=O)[nH]c2=O)O1)N(C)C(=O)CCCCN [Compound 123, 1-[5′-[(2S,3S)-N^3-(5-Aminopentanoyl)-N^2-[N-[[(1S)-1-carboxy-2-indol-3-ylethyl]carbamoyl]-L-phenylalanyl]-N^3-methyl-2,3-diaminobutyramido]-3′,5′-dideoxy-α-L-arabinofuranosyl]uracil] | >512 | 32 (≈ 39.1 µM) | 256 (≈ 313 µM) | 512 (≈ 626 µM) | 256 (≈ 313 µM) | 4 (≈ 4.89 µM) | >512 | 512 (≈ 626 µM) | 16 (≈ 19.6 µM) | >512
8 | 1-[5′-[(2S,3S)-N^3-L-Alanyl-N^2-[N-([(1S)-1-carboxy-phenethyl]carbamoyl]-L-leucinyl]-N^3-methyl-2,3-diaminobutyramido]-3′,5′-dideoxy-α-L-arabinofuranosyl]uracil [Compound 166] | >512 | >512 | >512 | >512 | >512 | 16 | 512 | 256 | >512 | >512
9 | 1-[5′-[(2S,3S)-N^3-L-Alanyl-N^2-[(2R)-2-benzyl-N-[(1S)-1-carboxy-2-indol-3-ylethyl]succinimoyl]-N^3-methyl-2,3-diaminobutyramido]-3′,5′-dideoxy-α-L-arabinofuranosyl]uracil [Compound 154] | >512 | 64 | >512 | >512 | >512 | 8 | >512 | 128 | 8 | >512
10 | CSCCC(N)C(=O)N(C)C(C)C(NC(=O)C(CCSC)NC(=O)NC(Cc1c[nH]c2ccccc12)C(=O)O)C(=O)NCC1CC(O)C(n2ccc(=O)[nH]c2=O)O1 [Compound 162, 1-[5′-[(2S,3S)-N^2-[N-[[(1S)-1-Carboxy-2-indol-3-ylethyl]carbamoyl]-L-methionyl]-N^3-L-methionyl-N^3-methyl-2,3-diaminobutyramido]-3′,5′-dideoxy-α-L-arabinofuranosyl]uracil] | >512 | 64 (≈ 76.7 µM) | 256 (≈ 307 µM) | 512 (≈ 614 µM) | 256 (≈ 307 µM) | 16 (≈ 19.2 µM) | 512 (≈ 614 µM) | 512 (≈ 614 µM) | 16 (≈ 19.2 µM) | >512
11 | CC(N)C(=O)N(C)C(C)C(NC(=O)C(CCCCN)NC(=O)NC(Cc1c[nH]c2ccccc12)C(=O)O)C(=O)NCC1CC(O)C(n2ccc(=O)[nH]c2=O)O1 [Compound 148, 1-[5′-[(2S,3S)-N^3-L-Alanyl-N^2-[N-[[(1S)-1-carboxy-2-indol-3-ylethyl]carbamoyl]-L-lysinyl]-N^3-methyl-2,3-diaminobutyramido]-3′,5′-dideoxy-α-L-arabinofuranosyl]uracil] | >512 | 128 (≈ 166 µM) | >512 | >512 | >512 | >512 | >512 | >512 | 8 (≈ 10.4 µM) | >512
